Measurements: publication PMC8961538, “N-Acylated and N-Alkylated 2-Aminobenzothiazoles Are Novel Agents That Suppress the Generation of Prostaglandin E2” (Biomolecules, 2022)
pEC50: −log10 of the molar value.

Assays:
[1] = tested on: hyperalgesia; design: method as in PMID 16203828; conditions: in vivo; cited from earlier work
[2] = tested on: GIVA cPLA2; design: method as in PMID 16203828; conditions: in vitro; cited from earlier work
[3] = tested on: spinal PGE2 release; design: method as in PMID 16203828; conditions: in vivo; cited from earlier work
[4] = tested on: GVIA iPLA2; design: method as in PMID 16203828; conditions: in vitro; cited from earlier work
[5] = tested on: PGE2 generation in rat mesangial cells; conditions: cited from earlier work; for pEC50: read-out: EC50, inhibition of PGE2 formation
[6] = tested on: rat-paw carrageenan-induced edema; experiment: Rat-paw carrageenan-induced-edema assay; assay type: in vivo; conditions: 0.01 mmol/kg, same dose as indomethacin
Method: The anti-inflammatory activities of selected aminobenzothiazole derivatives were determined by employing the rat-paw carrageenan-induced-edema assay, as previously described. Only male animals (180–220 g body weight) were used. Each group was composed of five animals. The animals were divided into three five-membered groups, and all the tested compounds were suspended in water (0.01 mmol/mL/kg body weight), with a few drops of Tween 80, and ground in a mortar before being administered intraperitoneally simultaneously. After treatment with the tested compounds in group 1, a 2nd group was used as a positive control (indomethacin at 0.01 mmol/mL/kg body weight, i.p.), and another group (3rd) served as the control in which water was administered (negative control). The compounds were injected intraperitoneally at the same time as carrageenan was given by intradermal injection. The rats were euthanized 3.5 h post-injection. The weight of the uninjected with carrageenan paw was subtracted from the weight of the injected paw for each animal. The change in paw weight for the treated animals was compared to that for the control animals and expressed as the percent inhibition of edema. The values of CPE % are the means from three different experiments with standard errors of the mean less than 10%. The statistical significance of the results was established with Student’s t-test, for * p < 0.01 and ** p < 0.05. All the animal experiments performed in the manuscript were conducted in compliance with institutional guidelines. Our studies were in accordance with recognized guidelines on animal experimentation (guidelines for the care and use of laboratory animals published by the Greek Government 160/1991, based on EU regulations 86/609). The rats were kept in the Centre of the School of Veterinary Medicine (EL54 BIO42), Aristotle University of Thessaloniki, which is registered by the official state veterinary authorities (presidential degree 56/2013, in harmonization with the European Directive 2010/63/EEC). The experimental protocols were approved by the Animal Ethics Committee of the Prefecture of Central Macedonia (no. 270079/2500).

[7] = target: T1, human recombinant group VIA phospholipase A2 (GVIA iPLA2) (Homo sapiens, UniProt O60733); experiment: Lipidomics-based mixed micelle PLA2 activity assay, GVIA iPLA2; assay type: biochemical; conditions: mole fraction of inhibitor in total substrate interface required to inhibit enzyme activity by 50%
T1 sequence (O60733 1-806): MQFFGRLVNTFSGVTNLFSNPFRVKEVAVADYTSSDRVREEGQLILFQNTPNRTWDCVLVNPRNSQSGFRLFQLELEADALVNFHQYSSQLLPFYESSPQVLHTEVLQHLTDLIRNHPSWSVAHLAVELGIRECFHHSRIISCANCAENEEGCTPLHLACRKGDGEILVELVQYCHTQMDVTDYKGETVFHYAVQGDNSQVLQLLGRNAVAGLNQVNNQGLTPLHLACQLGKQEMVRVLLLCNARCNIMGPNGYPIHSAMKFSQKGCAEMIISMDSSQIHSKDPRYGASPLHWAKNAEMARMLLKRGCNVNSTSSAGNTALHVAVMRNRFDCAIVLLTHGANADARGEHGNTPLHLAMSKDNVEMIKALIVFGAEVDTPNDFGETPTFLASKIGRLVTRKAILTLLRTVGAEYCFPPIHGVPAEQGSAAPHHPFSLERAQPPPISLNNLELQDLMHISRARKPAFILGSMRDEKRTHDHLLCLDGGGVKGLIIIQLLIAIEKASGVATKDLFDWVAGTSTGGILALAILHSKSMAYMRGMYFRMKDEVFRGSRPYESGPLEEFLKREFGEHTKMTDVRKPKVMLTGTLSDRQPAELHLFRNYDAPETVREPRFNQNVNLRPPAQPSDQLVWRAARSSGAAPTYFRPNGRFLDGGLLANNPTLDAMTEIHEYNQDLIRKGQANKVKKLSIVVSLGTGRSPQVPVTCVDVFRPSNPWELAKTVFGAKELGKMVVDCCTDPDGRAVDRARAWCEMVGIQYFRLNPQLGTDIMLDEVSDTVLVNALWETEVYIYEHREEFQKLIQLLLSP

[8] = tested on: PGE2 generation in rat mesangial cells; experiment: Suppression of IL-1β/forskolin-stimulated PGE2 generation in rat renal mesangial cells; assay type: cell-based; conditions: Rattus norvegicus, Mesangial cell, 24 h
Method: Rat renal mesangial cells (clone MZ B1), isolated and characterized as previously described, were cultivated in RPMI 1640 medium supplemented with 10% fetal bovine serum; 10 mM 4-(2-hydroxyethyl)-1-piperazineethanesulfonic acid (HEPES), pH 7.4; 6 µg/mL of bovine insulin; 5 µg/mL of transferrin; 5 nM sodium selenite; 100 units/mL of penicillin; and 100 µg/mL of streptomycin. The cells were incubated for 4 h in Dulbecco’s modified Eagle’s medium (DMEM) containing 10 mM HEPES, pH 7.4, and 0.1 mg/mL of fatty acid-free bovine serum albumin (BSA), prior to stimulation.
Confluent mesangial cells in 24-well plates were pretreated for 20 min with varying concentrations of inhibitors and then stimulated for 24 h in a total volume of 400 µL of DMEM containing 0.1 mg/mL of BSA, in the absence or presence of 1 nM interleukin 1β (IL-1) plus 5 μM forskolin (Fk). Thereafter, the supernatants were collected and centrifuged for 5 min at 1000× g. The PGE2 in the supernatant was quantified using an enzyme-linked immunoassay (Enzo Life Sciences, Lörrach, Germany) following the manufacturer’s recommendations.
Statistical analysis of the data was performed using one-way analysis of variance (ANOVA) followed by a Bonferroni’s post hoc test for multiple comparisons (GraphPad Prism 8.4.3., San Diego, CA, USA). The half maximal effective concentrations (EC50) of the inhibitors were calculated using the same software.

[9] = tested on: NO formation in cytokine-stimulated rat mesangial cells; experiment: IL-1/Fk-stimulated nitrite (NO) formation in rat mesangial cells, Griess assay; assay type: cell-based; conditions: IL-1 plus Fk, 24 h; nitrite in supernatants
Method: Figure S1. Effect of the inhibitor 19a on IL-1/Fk-stimulated nitrite formation in rat mesangial
Cells were pretreated for 20 min with the indicated concentrations of 19a and then stimulated for
24 h in the absence (-) or presence (+) of 1 nM interleukin 1β (IL-1) plus 5 µM forskolin (Fk).
Nitrite was quantified in supernatants using Griess assay as previously described.1 Data are
presented as mM of nitrite and are means +/- S.D. (n = 3).
1β induction of nitric oxide synthase in renal mesangial cells. Eur. J. Pharmacol. 1993,
(1 picture or pasted object on this page, not shown here)

[10] = tested on: PGE2 generation in CD4+ T cells; design: method as in PMID 25213337; conditions: cited from earlier work
[11] = tested on: allodynia after facial carrageenan injection; conditions: after facial carrageenan injection in mice; cited from earlier work

Compound: CCCCCCCCCCCCCCC(=O)C(=O)NCCCC(=O)OCC [AX048, ethyl 4-(2-oxohexadecanamido)butanoate]
- Anti-hyperalgesic activity [1]: anti-hyperalgesic activity
- XI(50) for GIVA cPLA2 [2]: 0.022 mole fraction
- Inhibition of spinal PGE2 release [3]: inhibits spinal PGE2 release
- XI(50) for GVIA iPLA2 [4]: 0.027 mole fraction

Compound: O=C(CCCCc1ccc2ccccc2c1)c1nc2ccccc2s1 [Compound 1]
- % inhibition of PGE2 generation ([5]; comparison value for compound 1): 85%
- pEC50 ([5]; rat mesangial cells): 6.15

Compound: O=C(CCCCc1ccc2ccccc2c1)c1nc2ccccc2o1 [Compound 2]
- pEC50 ([5]; rat mesangial cells): 6.10

Compound: c1ccc2cc(CCCNc3nc4ccccc4s3)ccc2c1 [Compound 19a, N-(3-(Naphthalen-2-yl)Propyl)Benzo[d]Thiazol-2-Amine]
- In vivo anti-inflammatory activity compared with indomethacin [6]: higher than that of indomethacin
- In vivo anti-inflammatory activity compared with indomethacin ([6]; listed as GK543): greater than that of indomethacin
- melting point: 112 to 114 °C
- XI(50) for GVIA iPLA2 [7]: 0.03 mole fraction
- inhibition at 3 µM ([8]; 3 μM, 1 nM IL-1β plus 5 μM forskolin): > 80%
- IC50 ([8]; 0.1 to 3 µM, IL-1β plus forskolin, read-out: EC50 (μM), inhibition of PGE2 generation): 0.118 µM
- Effect on NO production [9]: No effect

Compound: O=C(CCCCc1ccc2ccccc2c1)C(F)(F)F [FKGK18, 1,1,1-trifluoro-6-(2-naphthalenyl)-2-hexanone]
- Inhibition of generation of PGE2 [10]: inhibit the generation of PGE2

Compound: CCCCC/C=C\C/C=C\C/C=C\C/C=C\CCCC(=O)C(F)(F)F [arachidonoyl trifluoromethyl ketone]
- Inhibition of cytokine-stimulated generation of PGE2 ([5]; rat mesangial cells): inhibits
- Effect on allodynia [11]: modulates allodynia
